# Columns and labels:
# [1] = system: cardiomyopathic Syrian hamsters (Bio 14.6 strain); assay: Heart failure and myocardiopathy test in cardiomyopathic hamsters, oral dosing for 87 days; format: in vivo, hamster; conditions: for AST (GOT) level / LDH level: day 30, 60mg/kg/day
# Experimental: Male aged-matched normal healthy golden hamsters (F1B strain) were used as control animals. These hamsters were purchased from Biobreeders Inc. Throughout the test period, the animals were housed in stainless steel cage in a temperature (23 ± 1C° )controlled room where a daily light-dark cycle was maintained artificially at 12 hours intervals. The animals were fed with commercially available pellet (CE-2, CLEA Japan, Inc.) and provided adde libitum with feed pellets and water. Incidentally, after they were purchased, the animals were acclimated to the above environment at least one week before subjected to experiments.
# The test compound was suspended in a 0.5% sodium carboxymethyl cellulose (CMC-Na) solution. This dosing solution was orally administered for 87 days at dosages of 30mg/kg/day and 60mg/kg/day and a dose volume of 20ml/kg.
# Captopril was used as a control compound. The compound was similarly suspended in a 0.5% CMC-Na solution and was orally administered for 87 days at a dosage of 60mg/kg/day and a dose volume of 20ml/kg.
# A group of animals administered with a 0.5% CMC-Na solution served as a vehicle control group. The solution was administered once daily from Monday through Friday but not on Saturdays and Sundays.
# (§1) Body weight was recorded on every Monday and Thursday after the administration of the test compound. […]
# Blood samples were collected before administration of the test compound, and 45 and 88 days after administration. The blood samples were collected from venous plexus of eyegrounds under anesthesia by ether. Blood plasma was separated from the samples and plasma norepinephrine (NE) levels were measured using a catecholamine assay system.
# Myocardial tissue preparations were prepared 88 days after the administration was started. The animals were sacrificed by exsanguination under anesthesia by ether. Chests were opened and hearts extirpated. Weight of the hearts was measured and the hearts were fixed in a 10% buffered neutral formaldehyde solution. Bases of the hearts were sliced to a 3mm thickness and formed into paraffin slices with respect to the side of the base using ordinary methods. The slices were stained with kossa, hematoxylin/eosin (H&E) and H&E/aniline blue stains. The preparations of the hearts so prepared were measured in area for regions of cardiac fibrosis, mineral deposition, myocardial necrosis, and macrophage infiltration, using an image analyzing system (Mac SCOPE Ver.2.1, Mitsuya Shoji).
# (§2) Measurements were expressed in mean ± S.E., and tests for significant differences between the respective groups were performed using Dunnett's multiple comparison test.
# [2] = system: myocardial adenosine level; assay: Effects on myocardial adenosine level in extirpated, Langendorff-perfused rat hearts (HPLC); conditions: 10^-5 M, 15-minute perfusion, compared to vehicle control group (0.04% DMSO)
# Experimental: Male Sprange-Dawley rats aged 7 to 8 weeks were used. Hearts were extirpated under anesthesia by pentobarbital (50mg/kg, intra-abdominally injected) and were suspended in a Langendorff's apparatus.
# The hearts were then frozen with liquid nitrogen. 10 equivalents of 0.6N perchloric acid were added to the frozen tissue and the tissue was homogenized and neutralized by 1N KOH and was then centrifuged. After centrifugation, the level of adenosine in the supernatant was measured by HPLC.
# Propranol was used as a control compound for the test and 0.04% DMSO solution was used as a vehicle control.
# as §2
# [3] = system: normal healthy golden hamsters (F1B strain); conditions: hamster, in vivo
# Experimental: Male cardiomyopathic Syrian hamsters (Bio 14.6 strain) aged 7 weeks were used. Male aged-matched normal healthy golden hamsters (F1B strain) were used as control animals. These hamsters were purchased from Biobreeders Inc. Throughout the test period, the animals were housed in stainless steel cage in a temperature (23 ± 1C° )controlled room where a daily light-dark cycle was maintained artificially at 12 hours intervals. The animals were fed with commercially available pellet (CE-2, CLEA Japan, Inc.) and provided adde libitum with feed pellets and water. […]
# as §1
# Blood samples were collected before administration of the test compound, and 45 and 88 days after administration. […] Blood plasma was separated from the samples and plasma norepinephrine (NE) levels were measured using a catecholamine assay system.
# Myocardial tissue preparations were prepared 88 days after the administration was started. […] Weight of the hearts was measured and the hearts were fixed in a 10% buffered neutral formaldehyde solution. […] The preparations of the hearts so prepared were measured in area for regions of cardiac fibrosis, mineral deposition, myocardial necrosis, and macrophage infiltration, using an image analyzing system (Mac SCOPE Ver.2.1, Mitsuya Shoji). […]
# [4] = system: cardiomyopathic Syrian hamsters (Bio 14.6 strain); assay: Heart failure and myocardiopathy test in cardiomyopathic hamsters, oral dosing for 87 days; format: in vivo, hamster; conditions: Bio 14.6 hamsters, 30, 60 and 88 days, all tests other than AST (GOT) and LDH on day 30 at 60mg/kg/day
# [5] = system: male ICR mice; assay: Toxicity test, subcutaneous administration to mice, observed for one week; format: in vivo
# [6] = system: mice; assay: Toxicity test, oral administration to fasted mice, observed for two weeks, LD50 by the Richfield-Wilcockson method; format: in vivo; conditions: 0.025N hydrochloric acid-saline solution, after 16-hour fasting, observed for two weeks
# Experimental: (§3) LD50 was determined using the Richfield-Wilcockson method.
# [7] = as above; format: in vivo; conditions: mouse, in vivo, mice, Richfield-Wilcockson method
# Experimental: as §3
# [8] = Bio 14.6 hamsters, 88 days after administration, 60mg/kg/day, compared to vehicle control group
# [9] = Bio 14.6 hamsters, day 88, 60mg/kg/day oral
# [10] = Bio 14.6 hamsters, day 88, 60mg/kg/day, image analysis
# [11] = Bio 14.6 hamsters, day 88, 30mg/kg/day, image analysis
smiles,measurement,setting,value
"C[C@H](CS)C(=O)N1CCC[C@H]1C(=O)O [captopril, reference compound]",plasma NE level,[1]; [8],The same results were obtained
same,AST (GOT) level,[1]; Bio 14.6 hamsters,tendency of decrease
same,LDH level,[1]; Bio 14.6 hamsters,tendency of decrease
same,relative heart weight,[1]; [9],The same results were obtained
same,area of cardiac lesions,[1]; [10],significant decrease in area
same,area of regions of fibrosis,[1]; [10],significant decrease in area
same,area of regions of macrophage infiltration,[1]; [10],significant decrease in area
same,area of regions of myocardial necrosis,[1]; [10],significant decrease in area
"COC(=O)C12C(O)C(C(=O)Cc3ccccn3)=NN1C(c1ccccc1)C=CC2c1ccccc1 (centres unmarked) [compound No.1, 2,5-diphenyl-7-hydroxy-6-methoxycarbonyl-8-(2-pyridyl)acetyl-1,9-diazabicyclo[4.3.0]-nona-3,8-dien]",myocardial adenosine level,[2],increased three-fold
same,clinical chemistry tests,[3],no effect
same,clinical chemistry tests (all the other tests),[4],no effect
same,clinical observations related to treatment,"[5]; mouse, in vivo, sc",no clinical observations
same,mortality,"[5]; subcutaneous, 10ml/kg of a 10% aqueous polyethylene glycol 400 solution, observed for one week",no mortality
same,plasma NE level,"[1]; 45 days after administration, each dosage, compared to vehicle control groups, strain not specified in the sentence (Fig.4)",did not have significant effects
same,plasma NE level,[1]; [8],significantly lower level
same,plasma NE level,"[1]; Bio 14.6 hamsters, 88 days after administration, across 30 and 60mg/kg/day",decrease in a dose-dependent manner
same,AST (GOT) level,[1]; Bio 14.6 hamsters,tendency of decrease
same,LDH level,[1]; Bio 14.6 hamsters,tendency of decrease
same,relative heart weight,"[1]; Bio 14.6 hamsters, day 88, 30mg/kg/day oral",significant suppression of increase
same,"area of cardiac legions (sum of the areas of necrosis, macrophage infiltration and fibrosis)",[1]; [11],significant decrease in area
same,area of regions of fibrosis,[1]; [11],significant decrease in area
same,area of regions of macrophage infiltration,[1]; [11],significant decrease in area
same,area of regions of myocardial necrosis,[1]; [11],significant decrease in area
same,relative heart weight,[1]; [9],significant suppression of increase
same,area of regions of macrophage infiltration,[1]; [10],significant decrease in area
same,area of regions of myocardial necrosis,[1]; [10],significant decrease in area
same,relative liver weight,"[1]; Bio 14.6 hamsters, day 88, oral",did not have effects
same,changes in body weight,"[1]; Bio 14.6 hamsters, each dosage (30mg/kg/day and 60mg/kg/day), oral",did not affect
same,clinical observations,[6],no clinical observations
same,mortality,[6],no mortality
same,LD50 at 336 h,[7],> 100 mg/kg
"CC(C)NCC(O)COc1cccc2ccccc12 (centres unmarked) [propranol, reference compound]",myocardial adenosine level,[2],no significant difference

# From EP1060742A1, “INTERSTITIAL ADENOSINE LEVEL-ELEVATING AGENTS” (priority 1998, dated 1999)
